Source: patent US12103919B2, “3-(5-oxy)-1-oxoisoindolin-2-yl)piperidine-2,6-dione derivatives and uses thereof” (NOVARTIS AG, priority 2021, dated 2024)

Experiments:
HBG1/2 = assay: Analysis of HbF gene expression by RNA-seq after CRISPR/Cas9 knockout of WIZ in mPB CD34+ cells; assay type: cell-based, human; conditions: WIZ KO vs scrambled gRNA control, 7 days erythroid differentiation, FIG. 1A
Experimental: Mobilized peripheral blood (mPB) CD34+ cells (AllCells, LLC) were maintained in StemSpan™ serum-free expansion media (SFEM) ([…] Technologies Inc.) supplemented with 50 ng/mL each of rhTPO, rhlL-6, rhFLT3L, rhSCF for 2-3 days prior to shRNA transduction or targeted ribonucleoprotein (RNP) electroporation targeting WIZ. All cytokines were obtained from Peprotech®, Inc. Cell cultures were maintained at 37° C. and 5% CO2 in a humidified tissue culture incubator.
Alt-R CRISPR-Cas9 crRNA and tracrRNA (5′-[…]-3′; SEQ ID NO: 7) were purchased from Integrated DNA Technologies, Inc. Equimolar tracrRNA was annealed with WIZ targeting crRNA (Table 3) in Tris buffer (10 mM, pH 7.5) by heating at 95° C. for 5 minutes using a polymerase chain reaction (PCR) machine (Bio-Rad) followed by cooling to room temperature on the benchtop. Subsequently, a ribonucleoprotein (RNP) complex was generated by mixing annealed tracrRNA:crRNA with 6 ug of Cas9 at 37° C. for 5 minutes in 1× buffer containing HEPES (100 mM), KCl (50 mM), MgCl2 (2.5 mM), glycerol (0.03%), DTT (1 mM) and Tris pH 7.5 (2 mM). […]
Two independent, targeted CRISPR/Cas9 knockout (KO) of WIZ were done using WIZ_6 and WIZ_18 gRNAs or a non-targeting scrambled gRNA negative control in mPB CD34+ HSCs. […] The quality of isolated RNA was determined before sequencing using Agilent RNA 6000 Pico Kit (Agilent, catalogue #5067-1513). […]

HbF [1] = conditions: human primary erythroid cells; cited from earlier work
HbF [2] = conditions: cited from earlier work

In the case of “WIZ_6: WIZ targeting crRNA/gRNA, AACATCTTTCGGGCCGTAGG, SEQ ID NO 9 (listed as DNA, chemistry not given here)”, the “HBG1/2 expression upon erythroid differentiation” value (HBG1/2) is reported as “upregulation of fetal hemoglobin genes (HBG1/2)”.

For Nc1cccc2c1C(=O)N(C1CCC(=O)NC1=O)C2=O (stereo not drawn) [pomalidomide], the “HbF induction ex vivo” value (HbF [1]) is given as “induce HbF ex vivo” and the “HbF induction in vivo” value (HbF [2]) is given as “induce HbF”.

In the case of “WIZ_18: WIZ targeting crRNA/gRNA, AGTGGGTGCGGCACTTACAG, SEQ ID NO 14 (listed as DNA, chemistry not given here)”, the “HBG1/2 expression upon erythroid differentiation” value (HBG1/2) is reported as “upregulation of fetal hemoglobin genes (HBG1/2)”.

In the case of Nc1cccc2c1CN(C1CCC(=O)NC1=O)C2=O (stereo not drawn) [lenalidomide], the “HbF induction ex vivo” value (HbF [1]) is given as “induce HbF ex vivo” and the “HbF induction in vivo” value (HbF [2]) is given as “induce HbF”.
